Reference: patent publication US10729659B2, “Nanogel-mediated drug delivery” (The Cleveland Clinic Foundation, priority 2012, dated 2020)
Values after ≈ are worked out from the molar mass of the structure shown. Where two headings read alike, the source gives them in different places.

Tests used:
[1] = rat model; cited from earlier work
MCF-7 cells = test: Cell cycle analysis by flow cytometry; assay type: cell-based, human; settings: DAC 50 ng/mL, dox 1 ng/mL, 48 h and 72 h, vs DAC alone or untreated
Protocol: (§1) Subconfluent cells were left untreated or treated with DAC (50 and 100 ng/mL) and dox (1 ng/mL) alone or in combination (sequential treatment) for 4-96 h. Cells were then trypsinized and then centrifuged at 1,300 rpm for 3 min at 4° C. Cell pellet was washed twice with ice cold 1X DPBS (pH 7.4) and resuspended in propidium iodide-(PI) solution (12.5 mg PI, 250 mg Sodium-Citrate and 250 μL Triton X-100 in 250 mL of water). Cells were then incubated in ice bucket, kept in cold room for 2 h, and DNA content was determined by flow cytometry using a FACScan flow cytometer (Becton Dickinson, San Jose, Calif.).

MCF-7/Adr cells [2] = test: Cell cycle analysis by flow cytometry; assay type: cell-based, human; settings: DAC 50 ng/mL, dox 1 ng/mL, 48 h and 72 h, vs DAC alone or untreated
Protocol: as §1

BT 459 = test: Sequential treatment, cell viability by MTS assay; assay type: cell-based; settings: Homo sapiens, dox alone, read-out: IC50 (Dox ng/mL)
Protocol: The efficacy of sequential treatment was tested in the following human breast cancer cell lines: MCF-7/Adr (drug resistant), MCF-7, MDAMB 231 and BT-459. Cells were seeded at 3000 cells per well/0.1 mL in 96-well plates (Microtest Becton Dickinson Labware, Franklin Lakes, N.J.). 24 h post seeding, cells were pretreated with DAC solution/nanogel for 24 h or 48 h and washed with 1×-DPBS. 0.1 mL of media containing dox solution or nanogel was added and incubated in CO2 incubator for 48 h. Cell viability was determined at the end of incubation period using a standard MTS assay (CellTiter 96 Aqueous, Promega, Madison, Wis.). To each well was added 20 μL of reagent, the plates were incubated for 2 h at 37° C. in cell culture incubator, and color intensity was measured at 490 nm using a micro plate reader (Bio-Tek Instrument, Winooski, Vt.). The effect of drug on cell proliferation was calculated as percentage growth of cells with respect to their respective controls. […]
(§2) The interaction between DAC and dox was analyzed using the Calcusyn software program (Biosoft, Ferguson, Mo.) to determine whether the simultaneous/sequential treatment was additive or synergistic.
Data from cell viability assay (MTS) was expressed as the fraction of cells killed by individual drugs or by their combination in drug-treated compared with untreated cells. […]

dox sensitive cell lines = test: Dox cell viability by MTS assay, sensitive cell lines; assay type: cell-based; settings: Homo sapiens; range over sensitive cell lines
Protocol: Cells were seeded at 3000 cells per well/0.1 mL in 96-well plates (Microtest Becton Dickinson Labware, Franklin Lakes, N.J.). […] Cell viability was determined at the end of incubation period using a standard MTS assay (CellTiter 96 Aqueous, Promega, Madison, Wis.). To each well was added 20 μL of reagent, the plates were incubated for 2 h at 37° C. in cell culture incubator, and color intensity was measured at 490 nm using a micro plate reader (Bio-Tek Instrument, Winooski, Vt.). The effect of drug on cell proliferation was calculated as percentage growth of cells with respect to their respective controls. For simultaneous treatment DAC solution or nanogel, and dox solution or nanogel were added together to cells, and the above mentioned protocol was followed.

MCF-7/Adr cells [3] = test: Cellular uptake of dox; assay type: cell-based, human; settings: dox alone treated MCF-7/Adr cells
Protocol: Drug resistant breast cancer cells were seeded in 24 well plates (1.2×10^6 cells/well). Post 48 h seeding, cells were pre-treated with DAC (50 ng/mL; 24 h); and then incubated with fixed concentration of dox (1 μg/mL) for indicated time points. Post drug incubation cell lysates in RIPA buffer was collected and lyophilized. Dox was extracted from lyophilized cell lysates using methanol as the solvent and analyzed by HPLC.

MCF-7/Adr = test: Sequential/simultaneous treatment, cell viability by MTS assay; assay type: cell-based, human; settings: for IC50: Homo sapiens, NCI/ADR-RES
Protocol: The efficacy of sequential treatment was tested in the following human breast cancer cell lines: MCF-7/Adr (drug resistant), MCF-7, MDAMB 231 and BT-459. Cells were seeded at 3000 cells per well/0.1 mL in 96-well plates (Microtest Becton Dickinson Labware, Franklin Lakes, N.J.). 24 h post seeding, cells were pretreated with DAC solution/nanogel for 24 h or 48 h and washed with 1×-DPBS. 0.1 mL of media containing dox solution or nanogel was added and incubated in CO2 incubator for 48 h. Cell viability was determined at the end of incubation period using a standard MTS assay (CellTiter 96 Aqueous, Promega, Madison, Wis.). To each well was added 20 μL of reagent, the plates were incubated for 2 h at 37° C. in cell culture incubator, and color intensity was measured at 490 nm using a micro plate reader (Bio-Tek Instrument, Winooski, Vt.). The effect of drug on cell proliferation was calculated as percentage growth of cells with respect to their respective controls. For simultaneous treatment DAC solution or nanogel, and dox solution or nanogel were added together to cells, and the above mentioned protocol was followed.
as §2
Data from cell viability assay (MTS) was expressed as the fraction of cells killed by individual drugs or by their combination in drug-treated compared with untreated cells. This program is based upon Chou-Talalay method. It calculates combination index (CI) of drugs. From the CI values, synergistic action of drugs can be analysed. The CI equal to 1, indicates the additive effect and CI<1 and CI>1, indicates synergistic and antagonistic activity respectively.

| SMILES | Carcinogenicity [1] | G2/M arrest (MCF-7 cells) | G2/M arrest (MCF-7/Adr cells [2]) | IC50 (BT 459) [ng/mL] | IC50 (dox sensitive cell lines) [µg/mL] | Incubation time after which drug concentration reached plateau (MCF-7/Adr cells [3]) [h] | IC50 (MCF-7/Adr; dox alone, mean ± s.e.m., three experiments, read-out: IC50 (Dox ng/mL)) [ng/mL] | IC50 (MCF-7/Adr; pretreated with DAC 24 h, then dox 48 h, read-out: IC50 (Sequential - Deci + Dox ng/mL)) [ng/mL] | IC50 (Dox ng/mL) (MCF-7/Adr; dox alone, mean ± s.e.m., three experiments) [ng/mL] |
| --- | --- | --- | --- | --- | --- | --- | --- | --- | --- |
| Nc1ncn([C@@H]2O[C@H](CO)[C@@H](O)[C@H]2O)c(=O)n1 [5-azacytidine] | carcinogenic | – | – | – | – | – | – | – | – |
| COc1cccc2c1C(=O)c1c(O)c3c(c(O)c1C2=O)C[C@@](O)(C(=O)CO)C[C@@H]3O[C@H]1C[C@H](N)[C@H](O)[C@H](C)O1 [Dox, doxorubicin] | – | no difference | no difference | 102 ± 4.7 | 0.019 to 0.102 (≈ 0.035 to 0.188 µM) | 1 | 7380 | ≤ 1 | 7385.2 ± 698 |
